Laboratory results taken from patent publication US12662491B2 (Redona Therapeutics, Inc., priority 2020, dated 2026).
Read-outs that look alike come from different tables or passages of the source.

Target: T1, Zcchc11 enzyme (Homo sapiens, UniProt Q5TAX3)
T1 construct: made in house; host or cells: HEK293 cells (Zcchc11); E. coli Rosetta II (LIN28A)
T1 sequence (Q5TAX3 212-1420): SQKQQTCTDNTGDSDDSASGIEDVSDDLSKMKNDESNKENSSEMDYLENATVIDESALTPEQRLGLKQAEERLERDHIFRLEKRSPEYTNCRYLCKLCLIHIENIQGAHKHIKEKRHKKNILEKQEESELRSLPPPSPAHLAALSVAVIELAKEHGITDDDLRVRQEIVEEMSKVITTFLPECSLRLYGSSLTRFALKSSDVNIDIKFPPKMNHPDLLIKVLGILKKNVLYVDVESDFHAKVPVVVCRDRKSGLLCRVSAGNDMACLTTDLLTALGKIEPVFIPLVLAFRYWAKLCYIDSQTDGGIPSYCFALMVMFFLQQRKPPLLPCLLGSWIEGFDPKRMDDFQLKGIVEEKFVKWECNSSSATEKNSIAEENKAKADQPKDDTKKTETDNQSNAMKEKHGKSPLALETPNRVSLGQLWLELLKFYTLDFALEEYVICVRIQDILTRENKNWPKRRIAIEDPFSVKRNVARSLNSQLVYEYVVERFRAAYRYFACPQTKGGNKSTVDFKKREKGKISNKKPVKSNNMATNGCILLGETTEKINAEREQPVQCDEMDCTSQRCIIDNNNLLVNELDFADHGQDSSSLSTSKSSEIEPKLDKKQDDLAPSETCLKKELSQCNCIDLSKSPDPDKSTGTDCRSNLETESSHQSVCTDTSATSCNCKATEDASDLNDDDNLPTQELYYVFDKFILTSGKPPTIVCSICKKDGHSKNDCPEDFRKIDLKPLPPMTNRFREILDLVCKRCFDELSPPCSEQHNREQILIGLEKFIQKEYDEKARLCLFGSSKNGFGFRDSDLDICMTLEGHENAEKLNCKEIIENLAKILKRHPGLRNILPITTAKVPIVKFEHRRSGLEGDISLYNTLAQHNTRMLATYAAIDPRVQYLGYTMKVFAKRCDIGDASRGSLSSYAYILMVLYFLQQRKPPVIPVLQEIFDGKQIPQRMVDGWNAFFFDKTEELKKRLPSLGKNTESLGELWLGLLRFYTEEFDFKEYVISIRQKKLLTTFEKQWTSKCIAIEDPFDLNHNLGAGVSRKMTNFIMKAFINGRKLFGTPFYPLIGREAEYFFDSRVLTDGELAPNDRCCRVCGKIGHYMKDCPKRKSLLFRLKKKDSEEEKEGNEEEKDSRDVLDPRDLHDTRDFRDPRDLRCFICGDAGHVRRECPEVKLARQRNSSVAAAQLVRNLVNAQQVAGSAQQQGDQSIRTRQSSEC
Test: TUTase assay (Zcchc11 assay, Lin28a-dependent polyuridylation of pre-let-7)
Format: biochemical
Details: read-out: Potency Lin28a-dep Z11 IC50
Method in brief: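 LIN28A (10 nM) in pH 7.3 HEPES/KCl/MgCl2/DTT buffer was mixed with serially diluted compound, then 0.2 nM truncated human Zcchc11 and 2 nM labeled pre-let-7 were added for 30 min at room temperature. UTP (5 uM) and quench probe (4 nM) then started the reaction. Linear early rates gave IC50 values.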

[1] = Lin28a-dependent Zcchc11 (Z11) TUTase assay
[2] = Lin28a-dependent Zcchc11 (Z11) TUTase activity
[3] = LIN28A 10 nM, Zcchc11 0.2 nM, 5′-fluorescein pre-let-7 miRNA 2 nM, UTP 5 uM, room temperature, 30 minutes pre-incubation

SMILES | IC50 [1] | IC50 [2] | also measured
COc1cc2c(=O)c(C(=O)O)cn(-c3cnccn3)c2cc1N1CCC[C@@H]1COc1ncccc1Cl [Example 512, (R)-7-(2-(((3-chloropyridin-2-yl)oxy)methyl)pyrrolidin-1-yl)-6-methoxy-4-oxo-1-(pyrazin-2-yl)-1,4-dihydroquinoline-3-carboxylic acid] | > 50000 nM | – | –
O=C(O)c1cn(C2CC2)c2cc(N3CCC[C@@H]3COc3ccccc3)c(F)cc2c1=O [Compound 96, (R)-1-cyclopropyl-6-fluoro-4-oxo-7-(2-(phenoxy-methyl)pyrrolidin-1-yl)-1,4-dihydro-quinoline-3-carboxylic acid] | – | > 50000 nM | –
Cc1cccnc1OC[C@H]1CCCN1c1cc2c(cc1F)c(=O)c(C(=O)O)cn2-c1ccccc1 [Example 5, (R)-6-fluoro-7-(2-(((3-methylpyridin-2-yl)oxy)methyl)pyrrolidin-1-yl)-4-oxo-1-phenyl-1,4-dihydroquinoline-3-carboxylic acid] | – | – | IC50 [3]: ≤ 1000 nM
CN(C)C1CN(c2ccc(-n3cc(C(=O)O)c(=O)c4cc(Cl)c(N5CCC[C@@H]5COc5ncncc5Cl)cc43)cn2)C1 [Compound 167, (R)-6-chloro-7-(2-(((5-chloro-pyrimidin-4-yl)oxy)methyl)pyrrolidin-1-yl)-1-(6-(3-(dimethyl-amino)azetidin-1-yl)pyridin-3-yl)-4-oxo-1,4-dihydro-quinoline-3-carboxylic acid] | – | ≤ 1000 nM | –
CN(C)C1CN(c2ccc(-n3cc(C(=O)O)c(=O)c4cc(F)c(N5CC(c6ccc(O)nc6)C[C@@H]5COc5ncccc5Cl)cc43)cn2)C1 (mixture of isomers) [Compound 189, rac-7-((2R)-2-(((3-chloropyridin-2-yl)oxy)methyl)-4-(6-hydroxy-pyridin-3-yl)pyrrolidin-1-yl)-1-(6-(3-(dimethyl-amino)azetidin-1-yl)pyridin-3-yl)-6-fluoro-4-oxo-1,4-dihydro-quinoline-3-carboxylic acid] | – | ≤ 1000 nM | –
CN(C)CCOc1ccc(-n2cc(C(=O)O)c(=O)c3cc(Cl)c(N4CCC[C@@H]4COc4ncccc4Cl)cc32)cn1 [Example 418, (R)-6-chloro-7-(2-(((3-chloropyridin-2-yl)oxy)methyl)pyrrolidin-1-yl)-1-(6-(2-(dimethylamino)ethoxy)pyridin-3-yl)-4-oxo-1,4-dihydroquinoline-3-carboxylic acid] | ≤ 1000 nM | – | –
COc1ccc(Cl)c(OCC23CC(CN2c2nc4c(cc2Cl)c(=O)c(C(=O)O)cn4-c2ccc(N4CC(N(C)C)C4)nc2)C3)n1 [Compound 279, 6-chloro-7-(1-(((3-chloro-6-methoxy-pyridin-2-yl)oxy)methyl)-2-azabicyclo [2.1.1]hexan-2-yl)-1-(6-(3-(dimethyl-amino)azetidin-1-yl)pyridin-3-yl)-4-oxo-1,4-dihydro-1,8-naphthyridine-3-carboxylic acid formic acid] | – | ≤ 1000 nM | –
O=C(O)c1cn(-c2ccc(O)cc2)c2cc(N3CCC[C@@H]3COc3nccc4[nH]cnc34)c(F)cc2c1=O [Compound 116, (R)-7-(2-(((1H-imidazo[4,5-c]pyridin-4-yl)oxy)methyl)pyrrolidin-1-yl)-6-fluoro-1-(4-hydroxy-phenyl)-4-oxo-1,4-dihydro-quinoline-3-carboxylic acid] | – | 1000 to 10000 nM | –
O=C(O)c1cn(-c2ccc(N3CCNCC3)nc2)c2cc(N3CCC[C@@H]3COc3ncccc3Cl)c(Cl)cc2c1=O [Example 478, (R)-6-chloro-7-(2-(((3-chloropyridin-2-yl)oxy)methyl)pyrrolidin-1-yl)-4-oxo-1-(6-(piperazin-1-yl)pyridin-3-yl)-1,4-dihydroquinoline-3-carboxylic acid] | ≤ 1000 nM | – | –
CN(C)C1CN(c2ccc(-n3cc(C(=O)O)c(=O)c4cc(F)c(N5[C@@H](COc6nc7c(ccn7C)cc6Cl)C[C@H]6C[C@H]65)cc43)cn2)C1 [Compound 337, 7-[(1R,3R,5R)-3-[{{5-Chloro-1-methyl-pyrrolo[2,3-b]pyridin-6-yl}oxy)methyl]-2-azabicyclo [3.1.0]hexan-2-yl]-1-{6-[3-(dimethyl-amino)azetidin-1-yl]pyridin-3-yl}-6-fluoro-4-oxoquinoline-3-carboxylic acid] | – | ≤ 1000 nM | –
Cc1cccnc1OC[C@H]1CCCN1c1cc2c(cc1F)c(=O)c(C(=O)O)cn2C1(C)CC1 [Example 356, (R)-6-fluoro-1-(1-methylcyclo-propyl)-7-(2-(((3-methylpyridin-2-yl)oxy)methyl)pyrrolidin-1-yl)-4-oxo-1,4-dihydroquinoline-3-carboxylic acid] | ≤ 1000 nM | – | –
COc1ccnc(OC[C@H]2C[C@H]3C[C@H]3N2c2cc3c(cc2F)c(=O)c(C(=O)O)cn3-c2ccc(N3CC(N(C)C)C3)nc2)c1C [Example 681, 1-(6-(3-(dimethylamino)azetidin-1-yl)pyridin-3-yl)-6-fluoro-7-((1R,3R,5R)-3-(((4-methoxy-3-methylpyridin-2-yl)oxy)methyl)-2-azabicyclo[3.1.0]hexan-2-yl)-4-oxo-1,4-dihydroquinoline-3-carboxylic acid] | ≤ 1000 nM | – | –
CN(C)C1CN(c2ccc(-n3cc(C(=O)O)c(=O)c4cc(Cl)c(N5CC(C)(C)C[C@@H]5COc5ncccc5Cl)cc43)cn2)C1 [Example 58, 6-chloro-7-[(2R)-2-[[(3-chloropyridin-2-yl)oxy]methyl]-4,4-dimethylpyrrolidin-1-yl]-1-[6-[3-(dimethylamino)azetidin-1-yl]pyridin-3-yl]-4-oxoquinoline-3-carboxylic acid] | – | – | IC50 [3]: ≤ 1000 nM
O=C(O)c1cn(-c2ccc3[nH]ncc3n2)c2cc(N3CCC[C@@H]3COc3ncccc3Cl)c(Cl)cc2c1=O [Example 486, 6-chloro-7-[(2R)-2-{[(3-chloropyridin-2-yl)oxy]methyl}pyrrolidin-1-yl]-4-oxo-1-{1H-pyrazolo[4,3-b]pyridin-5-yl}-1,4-dihydroquinoline-3-carboxylic acid] | ≤ 1000 nM | – | –
N#Cc1cc2c(=O)c(C(=O)O)cn(-c3cnccn3)c2cc1N1CCC[C@@H]1COc1ncccc1Cl [Example 538, (R)-7-(2-(((3-chloropyridin-2-yl)oxy)methyl)pyrrolidin-1-yl)-6-cyano-4-oxo-1-(pyrazin-2-yl)-1,4-dihydroquinoline-3-carboxylic acid] | ≤ 1000 nM | – | –
O=C(O)c1cn(-c2ccc(CO)cc2F)c2cc(N3CCC[C@@H]3COc3ccccn3)c(F)cc2c1=O [Example 374, (R)-6-fluoro-1-(2-fluoro-4-(hydroxymethyl)phenyl)-4-oxo-7-(2-((pyridin-2-yloxy)methyl)pyrrolidin-1-yl)-1,4-dihydroquinoline-3-carboxylic acid] | ≤ 1000 nM | – | –
CN(C)C1CN(c2ccc(-n3cc(C(=O)O)c(=O)c4cc(Cl)c(N5CCC[C@@H]5COc5ncccc5Cl)cc43)cn2)C1 [Example 78, 6-chloro-7-[(2R)-2-{[(3-chloropyridin-2-yl)oxy]methyl}pyrrolidin-1-yl]-1-{6-[3-(dimethylamino)azetidin-1-yl]pyridin-3-yl}-4-oxo-1,4-dihydroquinoline-3-carboxylic acid] | – | – | IC50 [3]: ≤ 1000 nM
COc1ccc(Cl)c(OC[C@H]2CC3CC3N2c2cc3c(cc2Cl)c(=O)c(C(=O)O)cn3-c2ccc(N3CC(N(C)C)C3)nc2)n1 (stereo partly drawn) [Example 654, 6-chloro-7-((3R)-3-(((3-chloro-6-methoxypyridin-2-yl)oxy)methyl)-2-azabicyclo[3.1.0]hexan-2-yl)-1-(6-(3-(dimethylamino)azetidin-1-yl)pyridin-3-yl)-4-oxo-1,4-dihydroquinoline-3-carboxylic acid] | ≤ 1000 nM | – | –
Cc1cccnc1OC[C@H]1CCCN1c1cc2c(cc1F)c(=O)c(C(=O)O)cn2-c1ccc(N)nc1 [Compound 208, (R)-1-(6-aminopyridin-3-yl)-6-fluoro-7-(2-(((3-methylpyridin-2-yl)oxy)methyl)pyrrolidin-1-yl)-4-oxo-1,4-dihydro-quinoline-3-carboxylic acid] | – | ≤ 1000 nM | –
